Where no end group is shown, it is not given here.
Key:
[1] = system: Candida albicans ATCC 10231; assay: protective activity against opportunistic infections in immunosuppressed mice; assay type: in vivo; conditions: female ddY mice infected with Candida albicans 24 hours after last treatment
Procedure: The compounds of formula I were tested for protective activity against opportunistic infections in immunosuppressed mice. Female ddY mice (6 weeks old) weighing about 25 g were pretreated daily for eight days with 5-fluorouracil (5-FU) (25 mg/kg/day, i.p.) and with thymosin α1or with compounds of formula I (i.p.) at varying dosages. The mice were then infected with Candida albicans ATCC 10231 (1×10^5 cells or more) at 24 hours after the last treatment. One control group was administered 5-FU and saline solution and a second control group received neither 5-FU nor a thymic polypeptide prior to infection with Candida albicans.

[2] = isoelectric point by preparative isoelectric focusing; assay type: physicochemical
Procedure: It is preferred that the compound of formula II be separated conventionally from Thymosin Fraction 5 using preparative isoelectric focusing, with the proteins recovered therefrom being purified by HPLC. By such a procedure, for example, 1.2 grams of Thymosin Fraction 5 provided 16 mg of thymosin α1, 16 mg of thymosin β4 and 1 mg of the compound of formula II. The isoelectric point for the compound of formula II was pH 4.62.
Any reverse phase hydrophobic resin may be employed in a conventional manner in the HPLC isolation. Among such resins there are included, for example, a hydrocarbon (C8 to C18) on any inert matrix such as silica gel, glass, polysaccharides and the like, which matrix is inert to the eluting agent being employed. The preferred resin is a straight chain C18 hydrocarbon bonded to silica gel or glass beads. […]
A sample of thymosin Fraction 5 (1.2 g) was dissolved in 100 ml of 2% ampholine for separation in the pH range 4-6 and filtered through a 0.45 μm molecular pore filter. […] The focused gel was cut with a grid into 30 sections, each of which was eluted on a small column with 5 ml of H2 O. The pH of eluate was determined at 0° C. […] Fractions (0.7 ml) were collected every 2 min and aliquots (5 μl of a 1:25 dilution) of each aliquot analyzed by direct injection into the borate buffer line of the fluorescamine detector, because the automatic column monitoring was off-scale.

[3] = 4 μg/kg/day i.p. daily for eight days with 5-FU 25 mg/kg/day i.p.
[4] = 40 μg/kg/day i.p. daily for eight days with 5-FU 25 mg/kg/day i.p.
[5] = 0.4 μg/kg/day i.p. daily for eight days with 5-FU 25 mg/kg/day i.p.

In the case of “Thymosin α1: acidic peptide containing 28 amino acid residues isolated from Thymosin Fraction 5, U.S. Pat. No. 4,079,127 (SDAAVDTSSEITTKDLKEKKEVVEEAEN; ends and bridges not checked; UniProt P01252 2-29, looked up)”, the “Survivors at Day 8” value [1, 3] is reported as 7/10, the “Survivors at Day 15” value [1, 3] is reported as 6/10 and the “Survivors at Day 8” value [1, 4] is reported as 7/10. For the same substance, the “Survivors at Day 15” value [1, 4] was 7/10.
With “Thymosin β4: peptide isolated from Thymosin Fraction 5 containing 44 amino acid residues” the “Survivors at Day 8” value [1, 5] was 7/10, the “Survivors at Day 15” value [1, 5] was 6/10 and the “Survivors at Day 8” value [1, 3] was 5/10. For the same substance, the “Survivors at Day 15” value [1, 3] was 5/10, the “Survivors at Day 8” value [1, 4] was 1/10 and the “Survivors at Day 15” value [1, 4] was 1/10.
For “Thymosin β8: polypeptide isolated from calf thymus Fraction 5, 4,518 daltons, 39 amino acid residues, NH2-terminus acetyl alanine (ADKPDLGEINSFDKAKLKKTETQEKNTLPTKETIEQEKQ; thymosin beta-8 N-terminal acetyl; UniProt P21752 2-40, looked up, fragment)”, the isoelectric point [2] was 4.62 pH.
With “Thymosin β9: polypeptide from fresh frozen calf thymus, identical to thymosin β8 plus --Ala--LysOH at the COOH-terminus, 4,717 daltons, 41 amino acids (ADKPDLGEINSFDKAKLKKTETQEKNTLPTKETIEQEKQAK; not fully specified; Thymosin beta-9; UniProt P21752 2-42, looked up)” the isoelectric point [2] was 5.14 pH.

— patent US4389343A, “Immunopotentiating peptides from thymus” (Hoffmann-La Roche Inc., priority 1981, dated 1983)
